In one test the target is PI3Kα mutation H1047R (Homo sapiens, UniProt P42336, H1047R). Nature of the test: PI3 Kinase TR-FRET assay, PI3Kα mutation H1047R. The class given is biochemical. Conditions: read-out: inhibition of PI3Kα mutation H1047R, IC50. The procedure: The ability of compounds of the invention to inhibit PI3K activity was determined in a homogeneous TR-FRET assay using a PI3K assay kit (Millipore, USA; cat #33-016) according to manufacturer's instructions. PI3-Kinases (isoforms α, β, γ and δ) catalyze the phosphorylation of phosphatidylinositol, PIP2 to PIP3 in the presence of ATP and Mg^2+. The PIP3 product is detected by displacement of biotin-PIP3 from an energy transfer complex consisting of Europium labeled anti-GST monoclonal antibody, a GST-tagged PH domain, biotinylated PIP3 and Streptavidin-APC. Excitation of Europium in the complex results in an energy transfer to the APC and a fluorescence emission at 665 nm. The PIP3 product displaces biotin-PIP3 from the complex resulting in a loss of energy transfer and thus a decrease in signal.
PI3Kα mutation H1047R, sequence (P42336 whole entry H1047R, the tested form may be a part, canonical isoform): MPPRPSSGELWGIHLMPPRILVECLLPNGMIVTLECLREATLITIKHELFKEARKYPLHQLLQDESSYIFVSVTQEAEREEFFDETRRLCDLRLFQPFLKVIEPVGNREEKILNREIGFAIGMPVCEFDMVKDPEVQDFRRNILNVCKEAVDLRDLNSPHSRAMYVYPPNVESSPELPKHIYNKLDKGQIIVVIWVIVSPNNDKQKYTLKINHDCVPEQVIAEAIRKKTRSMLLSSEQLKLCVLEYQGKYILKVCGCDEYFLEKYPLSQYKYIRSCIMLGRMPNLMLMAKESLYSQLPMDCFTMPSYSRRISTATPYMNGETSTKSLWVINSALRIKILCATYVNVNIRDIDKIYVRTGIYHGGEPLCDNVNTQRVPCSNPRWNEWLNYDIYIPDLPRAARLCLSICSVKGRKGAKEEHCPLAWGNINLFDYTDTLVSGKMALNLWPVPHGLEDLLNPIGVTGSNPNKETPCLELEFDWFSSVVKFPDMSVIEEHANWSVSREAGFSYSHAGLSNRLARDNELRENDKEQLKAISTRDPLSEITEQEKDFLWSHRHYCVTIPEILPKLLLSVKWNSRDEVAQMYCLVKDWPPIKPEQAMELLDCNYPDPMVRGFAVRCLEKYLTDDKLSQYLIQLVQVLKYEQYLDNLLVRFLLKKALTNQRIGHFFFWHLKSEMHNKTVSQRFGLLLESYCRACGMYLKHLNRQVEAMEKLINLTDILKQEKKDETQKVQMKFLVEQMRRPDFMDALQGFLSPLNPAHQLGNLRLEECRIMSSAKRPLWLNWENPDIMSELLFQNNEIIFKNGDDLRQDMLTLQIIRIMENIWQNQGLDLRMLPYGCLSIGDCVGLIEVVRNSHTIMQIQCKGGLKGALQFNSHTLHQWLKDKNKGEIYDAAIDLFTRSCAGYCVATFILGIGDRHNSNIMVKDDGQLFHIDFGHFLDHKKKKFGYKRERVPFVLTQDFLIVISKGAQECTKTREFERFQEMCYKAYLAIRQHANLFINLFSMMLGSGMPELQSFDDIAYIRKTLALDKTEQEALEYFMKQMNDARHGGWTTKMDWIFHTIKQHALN
PI3Kα mutation H1047R, sequence (P27986 whole entry partner, the tested form may be a part, canonical isoform): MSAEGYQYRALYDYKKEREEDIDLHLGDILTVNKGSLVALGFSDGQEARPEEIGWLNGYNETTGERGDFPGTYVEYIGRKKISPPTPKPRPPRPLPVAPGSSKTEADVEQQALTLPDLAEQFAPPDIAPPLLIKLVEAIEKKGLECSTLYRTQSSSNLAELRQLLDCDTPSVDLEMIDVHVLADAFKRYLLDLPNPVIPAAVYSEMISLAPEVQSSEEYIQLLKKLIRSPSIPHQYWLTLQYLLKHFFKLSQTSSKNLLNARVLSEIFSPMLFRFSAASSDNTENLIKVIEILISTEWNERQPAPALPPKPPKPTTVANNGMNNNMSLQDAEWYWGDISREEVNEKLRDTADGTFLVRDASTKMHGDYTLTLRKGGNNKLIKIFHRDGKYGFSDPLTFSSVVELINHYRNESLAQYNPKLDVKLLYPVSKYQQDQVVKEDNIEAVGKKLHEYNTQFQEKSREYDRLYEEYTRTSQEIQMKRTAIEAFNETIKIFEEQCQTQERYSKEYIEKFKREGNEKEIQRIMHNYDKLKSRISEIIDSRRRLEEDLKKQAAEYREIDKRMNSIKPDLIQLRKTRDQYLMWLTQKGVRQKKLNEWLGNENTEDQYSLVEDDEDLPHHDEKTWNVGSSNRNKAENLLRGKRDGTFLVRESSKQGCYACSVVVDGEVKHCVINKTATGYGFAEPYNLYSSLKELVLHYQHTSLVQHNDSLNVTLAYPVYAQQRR
To test for the ability of compounds to inhibit the activity of PI3Kα (wild-type), exemplary compounds of formula (I) were dissolved in DMSO and directly distributed into 384-well plates at a volume of 0.5 μL. 14.5 μL of P110/P85α/PIP2 mixture in buffer (obtained from the Millipore kit) containing MgCl2 (40 mM) and DTT (5 mM) was added to compound wells and incubated for 60 minutes at room temperature. P110/P85α was expressed in SF9 insect cells and purified nickel column extraction. Five ng of wild-type P110/P85α was used in the assay. The kinase reaction was started by the addition of ATP. The assay concentrations of both PIP2 and ATP were 10 μM. The reaction mixture was incubated for 30 minutes at room temperature and was terminated by the addition of stop mix and detection mix. Fluorescence was measured at 615 and 665 nm upon excitation at 340 nm in a Victor™ V5 fluorometer (Perkin Elmer, USA). The fluorescence emission ratio at 665 to 615 nm, proportional to the kinase activity, was plotted against the compound concentration to generate dose-response curves and IC50 values were determined using GraphPad Prism® 5 software.
The activity of PI3Kα mutations H1047R and E545K were assayed in a similar manner to the assay protocol described above for PI3Kα (wild type). The compounds of formula (I) caused inhibition of PI3Kα mutations H1047R (a mutation associated with breast and gastric cancers) and E545K (a mutation associated with colorectal tumors, glioblastomas, gastric cancers, breast cancers, and lung cancers). For example, each of the compounds of Example 3, 7, 21, 47, 48 and 49 caused inhibition of each of the PI3Kα mutations H1047R and E545K with IC50 values<50 nM.
(In general: TR-FRET usually uses a lanthanide donor and a delayed reading to cut background.)

Another test relates to pAKT (S473). Kind of test: In vivo PK/PD study, U87MG tumor xenograft, pAKT (S473). Conditions: U87MG tumor-bearing xenograft mice, 50 mg/kg po. Here is the method:
PC3 cells are cultured at 37° C. in a 5% CO2 incubator using Hams F12 K medium. Ten million (10^7) cells are injected subcutaneously to the right flank region of athymic male mice (Harlan, age: 6-7 weeks, weight: about 20 g). Tumor bearing mice are randomized when the tumor volume reaches about 250 mm^3 and three mice are used per each time point. Test compounds of formula (I) are typically formulated in 40% HPCD in 1×PBS, pH 7.4 or in 10% Ethanol/40% Solutol/50% 50 mM aq. methanesulfonic acid and dosed orally at 50 mg/kg single dose (dose volume—10 mL/kg). Plasma and tumor samples are collected at 0 (vehicle control animals), 1, 4 and 24 hours post dosing. Blood is drawn (retro orbital) to a tube containing 0.2% EDTA for plasma collection. […] Tumor and plasma drug concentrations are measured for PK analysis using LC-MS.
Snap frozen tumor samples are pulverized in a mortar (Belart) containing liquid nitrogen and tumor powder is stored at −80° C. until analysis. […] The detection for pAKT is based on chemiluminescence and pS6RP is based on absorbance. […]
In vivo pharmacokinetic/pharmacodynamic (PK/PD) studies were carried out in a similar manner using U87MG tumor cells (glioma cancer cell line with a PTEN null mutation) and the corresponding tumor-bearing xenograft mice, and compounds of the invention were determined to be active in this assay. […]

As to `Nc1ncc(-c2nc(N3CCOCC3)c3ncc(-c4cccc(NC(=O)C5CC5)c4)cc3n2)cn1` [Example 7, N-(3-(2-(2-Aminopyrimidin-5-yl)-4-morpholinopyrido[3,2-d]pyrimidin-7-yl)-phenyl)cyclopropanecarboxamide], the half-maximal inhibitory concentration (IC50) (in general, the point on the concentration scale where inhibition reaches its midpoint) at PI3Kα mutation H1047R is under 50 nM.
For `CC(=O)Nc1cccc(-c2cnc3c(N4CCOCC4)nc(-c4cnc(N)nc4)nc3c2)c1` [Example 3, N-(3-(2-(2-Aminopyrimidin-5-yl)-4-morpholinopyrido[3,2-d]pyrimidin-7-yl)-phenyl)acetamide], the half-maximal inhibitory concentration (IC50) at PI3Kα mutation H1047R was under 50 nM. Moreover, the “suppression of pAKT (S473)” value with pAKT (S473) was “suppression”.
For `N#CC1(C(=O)Nc2cccc(-c3cnc4c(N5CCOCC5)nc(-c5cnc(N)nc5)nc4c3)c2)CC1` [Example 61, N-(3-(2-(2-amino-pyrimidin-5-yl)-4-morpholinopyrido[3,2-d]pyrimidin-7-yl)phenyl)-1-cyanocyclopropane-carboxamide], in the test on pAKT (S473), the “suppression of pAKT (S473)” value is “suppression”.

The record behind these values is patent US9145411B2, “Substituted amino-pyrimidine derivatives” (Asana Biosciences, LLC, priority 2012, dated 2015).
